Results published in US20220380763A1, “NUCLEIC ACID DELIVERY ENHANCER” (NATIONAL UNIVERSITY CORPORATION KOCHI UNIVERSITY, priority 2019, published 2022).
Numbered stars: 1 amine (or outer) side, 2 acyl side, 3 side chain; on linkers, the order of the positions; unused ones are H or OH. Square brackets hold non-standard residues; d marks the D form. Peptide text beside a SMILES is read from it. * marks the point of attachment. Pteroyl = Nc1nc2ncc(CNc3ccc(C(=O)*)cc3)nc2c(=O)[nH]1; γGlu = O=C(O)[C@H](CCC(=O)[*:2])N[*:1]; Dab = NCC[C@H](N)C(=O)O

Experiments:
SNORA22 = SNORA22 siRNA (SEQ ID NOs: 11 and 12) in combination; Dab8 1 eq, Fol-Dab8A 3 eq, Fol-Dab8B 1 eq; S2-013 cells, 48 hours
Procedure: (§1) Scrambled control siRNA (SEQ ID NOs: 3 and 4), SNORA18 siRNA (SEQ ID NOs: 5 and 6), NUP85 siRNA (SEQ ID NOs: 7 and 8), WASF2 siRNA (SEQ ID NOs: 9 and 10), and SNORA22 siRNA (SEQ ID NOs: 11 and 12), to which a cationic oligopeptide or a folic acid-cationic peptide was added (a complex of Dab8 with siRNA in 1 equivalent, a complex of Fol-Dab8A with siRNA in 3 equivalents, and a complex of Fol-Dab8B with siRNA in 1 equivalent), were each added to the culture solution the S2-013 cells in a 6-well plate (Thermo Fisher Scientific Inc.) (1.0×10^5 cells/well), and the cells were recovered after 48 hours.
(§2) Semi-quantitative RT-PCR was performed using RNA from the recovered cells to confirm the knockdown effects of SNORA18, NUP85, WASF2, and SNORA22 in the cells.
(§3) Specifically, the total RNA obtained from the S2-013 cells was reverse-transcribed using StrataScript reverse transcriptase (Agilent) and random primers. Appropriate dilutions of each single-stranded cDNA were prepared for subsequent PCR amplification. GAPDH mRNA was used as an internal quantitative control.
(§4) PCR reactions were performed on a TaKaRa PCR Thermal Cycler Dice Gradient with initial denaturation at 94° C. for 2 minutes, followed by 94° C. for 30 seconds, 58° C. for 30 seconds, and 72° C. for 1 minute for 21 cycles (for GAPDH) or 25 cycles (for SNORA18, NUP85, WASF2, and SNORA22). Scanning and densitometric analysis for band intensity measurements were performed using the Quantity One analysis system (Bio-Rad).

SNORA18 = SNORA18 siRNA (SEQ ID NOs: 5 and 6) in combination; Dab8 1 eq, Fol-Dab8A 3 eq, Fol-Dab8B 1 eq; S2-013 cells, 48 hours
Procedure: as §1, §2, §3, §4

WASF2 = WASF2 siRNA (SEQ ID NOs: 9 and 10) in combination; Dab8 1 eq, Fol-Dab8A 3 eq, Fol-Dab8B 1 eq; S2-013 cells, 48 hours
Procedure: as §1, §2, §3, §4

NUP85 = NUP85 siRNA (SEQ ID NOs: 7 and 8) in combination; Dab8 1 eq, Fol-Dab8A 3 eq, Fol-Dab8B 1 eq; S2-013 cells, 48 hours
Procedure: as §1, §2, §3, §4

S2-013 cells = assay: Matrigel invasion assay; assay type: cell-based, human; details: versus scrambled control siRNA and siRNA alone
Procedure: Each of the scrambled control siRNA, SNORA18 siRNA, NUP85 siRNA, WASF2 siRNA, and SNORA22 siRNA (all used in Example 5) with the folic acid-cationic oligopeptide complex added was added to the culture solution of S2-013 cells, and Matrigel invasion assay was performed after 48 hours.
4.0×10^4 cells were suspended in a serum-free medium and seeded in the upper chamber of a Matrigel Invasion Chamber (24-well plate, pore size: 8 μm, manufactured by Becton, Dickinson, and Company). A solvent containing 5% fetal bovine serum was added to the lower chamber. After the cells were incubated in the upper chamber for 20 hours, three independent areas were observed under a microscope, and the cells invading the lower chamber were counted. The same experiment was repeated three times, and the cell invasion ability of 52-013 cells into which each siRNA was taken up was compared.
The “*” denotes a significant difference at P<0.05 as compared to the control in the t-test.
Each of the scrambled control siRNA (SEQ ID NOs: 3 and 4), SNORA18 siRNA (SEQ ID NOs: 21 and 22), NUP85 siRNA (SEQ ID NOs: 23 and 24), WASF2 siRNA (SEQ ID NOs: 25 and 26), and SNORA22 siRNA (SEQ ID NOs: 27 and 28) was added with 2 equivalents of Dab8, Fol-Dab8A, or Fol-Dab8B to the culture solution of pancreatic cancer cell line S2-013 in culture. As a control, each of the control siRNA, SNORA18 siRNA, NUP85 siRNA, WASF2 siRNA, and SNORA22 siRNA was added alone to the culture solution of the S2-013 cells.
After 48 hours of culture, the Matrigel invasion assay was performed. In the Matrigel invasion assay, the number of cells that have migrated from the upper chamber to the lower chamber is shown. The “*” denotes a significant difference at P<0.05 as compared to the control in the t-test.

[1] = tested on: S2-013 pancreatic cancer cells or HPNE normal pancreatic duct epithelial cells; details: chemically-modified Alexa488-labeled SNORA22 siRNA, 2 equivalents, overnight
Text: Chemically-modified SNORA22 siRNA (SEQ ID NOs: 27 and 28) prepared in Example 7 was labeled with Alexa488 (Thermo Fisher Scientific Inc.) and added with the folic acid-cationic oligopeptide complex (Fol-Dab8B, 2 equivalents) to the culture solution of S2-013 pancreatic cancer cells or HPNE normal pancreatic duct epithelial cells (ATCC) in a 4-well chamber (Thermo Fisher Scientific Inc.) (5×10^4 cells/well).

[2] = chemically-modified NUP85 siRNA (SEQ ID NOs: 23 and 24) with 2 equivalents of peptide
[3] = chemically-modified SNORA18 siRNA (SEQ ID NOs: 21 and 22) with 2 equivalents of peptide
[4] = chemically-modified SNORA22 siRNA (SEQ ID NOs: 27 and 28) with 2 equivalents of peptide
[5] = chemically-modified WASF2 siRNA (SEQ ID NOs: 25 and 26) with 2 equivalents of peptide

| SMILES | knockdown effect on SNORA22 (SNORA22) | knockdown effect on SNORA18 (SNORA18) | knockdown effect on WASF2 (WASF2) | knockdown effect on NUP85 (NUP85) | invasion of S2-013 cells (S2-013 cells; [2]) | invasion of S2-013 cells (S2-013 cells; [3]) | invasion of S2-013 cells (S2-013 cells; [4]) | invasion of S2-013 cells (S2-013 cells; [5]) | uptake of SNORA22 siRNA into S2-013 pancreatic cancer cells relative to normal cells (HPNE) [1] |
| --- | --- | --- | --- | --- | --- | --- | --- | --- | --- |
| NCC[C@H](NC(=O)[C@H](CCN)NC(=O)[C@H](CCN)NC(=O)[C@H](CCN)NC(=O)[C@H](CCN)NC(=O)[C@H](CCN)NC(=O)[C@H](CCN)NC(=O)[C@H](CCN)NC(=O)CNC(=O)CNC(=O)CNC(=O)CC[C@H](NC(=O)c1ccc(NCc2cnc3nc(N)[nH]c(=O)c3n2)cc1)C(=O)O)C(N)=O [Fol-Dab8A] ({Pteroyl-γGlu}-GGG[Dab][Dab][Dab][Dab][Dab][Dab][Dab][Dab]-NH2) | remarkable knockdown effects | remarkable knockdown effects | remarkable knockdown effects | remarkable knockdown effects | significantly suppressed | significantly suppressed | significantly suppressed | significantly suppressed |  |
| NCC[C@H](NC(=O)[C@H](CCN)NC(=O)[C@H](CCN)NC(=O)[C@H](CCN)NC(=O)[C@H](CCN)NC(=O)[C@H](CCN)NC(=O)[C@H](CCN)NC(=O)[C@H](CCN)NC(=O)CNC(=O)CNC(=O)CNC(=O)[C@H](CCC(=O)O)NC(=O)c1ccc(NCc2cnc3nc(N)[nH]c(=O)c3n2)cc1)C(N)=O [Fol-Dab8B] (Pteroyl-EGGG[Dab][Dab][Dab][Dab][Dab][Dab][Dab][Dab]-NH2) | remarkable knockdown effects | remarkable knockdown effects | remarkable knockdown effects | remarkable knockdown effects | significantly suppressed | significantly suppressed | significantly suppressed | significantly suppressed | ~3 fold |
